Test [1] concerns the target T1, Alpha-2B adrenergic receptor (Homo sapiens, UniProt P18089).
T1 sequence (P18089 whole entry): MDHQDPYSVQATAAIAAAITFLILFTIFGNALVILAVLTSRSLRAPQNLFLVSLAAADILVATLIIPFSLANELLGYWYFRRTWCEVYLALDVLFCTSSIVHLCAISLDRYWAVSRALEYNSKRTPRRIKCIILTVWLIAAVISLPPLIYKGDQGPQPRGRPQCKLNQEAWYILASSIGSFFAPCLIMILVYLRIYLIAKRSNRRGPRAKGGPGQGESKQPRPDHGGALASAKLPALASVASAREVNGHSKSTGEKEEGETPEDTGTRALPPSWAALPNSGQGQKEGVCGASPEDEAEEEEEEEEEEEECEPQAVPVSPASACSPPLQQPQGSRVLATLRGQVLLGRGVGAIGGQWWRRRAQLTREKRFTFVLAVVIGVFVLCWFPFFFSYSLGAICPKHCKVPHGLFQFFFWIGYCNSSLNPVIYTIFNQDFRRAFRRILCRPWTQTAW

The target in test [2] is Sodium-dependent dopamine transporter (Homo sapiens, UniProt Q01959).
Chain of Sodium-dependent dopamine transporter (Q01959 whole entry): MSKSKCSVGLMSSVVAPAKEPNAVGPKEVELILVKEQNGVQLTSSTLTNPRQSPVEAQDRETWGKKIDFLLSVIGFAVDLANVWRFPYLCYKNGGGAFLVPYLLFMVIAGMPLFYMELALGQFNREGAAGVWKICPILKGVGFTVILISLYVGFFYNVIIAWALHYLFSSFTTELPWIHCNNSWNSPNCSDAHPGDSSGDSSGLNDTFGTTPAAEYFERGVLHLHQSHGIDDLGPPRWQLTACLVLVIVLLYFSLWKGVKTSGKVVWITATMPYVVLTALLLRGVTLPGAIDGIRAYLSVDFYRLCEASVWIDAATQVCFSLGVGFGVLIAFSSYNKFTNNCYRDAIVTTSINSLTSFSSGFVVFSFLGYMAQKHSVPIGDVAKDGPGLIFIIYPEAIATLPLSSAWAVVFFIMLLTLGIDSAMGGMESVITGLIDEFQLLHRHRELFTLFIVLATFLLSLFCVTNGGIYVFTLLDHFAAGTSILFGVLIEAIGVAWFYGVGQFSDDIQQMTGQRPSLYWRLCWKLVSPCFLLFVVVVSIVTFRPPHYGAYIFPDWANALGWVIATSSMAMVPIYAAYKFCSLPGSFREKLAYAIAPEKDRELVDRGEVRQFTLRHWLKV
For test [3], the target named is Voltage-dependent L-type calcium channel subunit alpha-1C (Rattus norvegicus, UniProt P22002). Type of test: functional.
Chain of Voltage-dependent L-type calcium channel subunit alpha-1C (P22002 whole entry): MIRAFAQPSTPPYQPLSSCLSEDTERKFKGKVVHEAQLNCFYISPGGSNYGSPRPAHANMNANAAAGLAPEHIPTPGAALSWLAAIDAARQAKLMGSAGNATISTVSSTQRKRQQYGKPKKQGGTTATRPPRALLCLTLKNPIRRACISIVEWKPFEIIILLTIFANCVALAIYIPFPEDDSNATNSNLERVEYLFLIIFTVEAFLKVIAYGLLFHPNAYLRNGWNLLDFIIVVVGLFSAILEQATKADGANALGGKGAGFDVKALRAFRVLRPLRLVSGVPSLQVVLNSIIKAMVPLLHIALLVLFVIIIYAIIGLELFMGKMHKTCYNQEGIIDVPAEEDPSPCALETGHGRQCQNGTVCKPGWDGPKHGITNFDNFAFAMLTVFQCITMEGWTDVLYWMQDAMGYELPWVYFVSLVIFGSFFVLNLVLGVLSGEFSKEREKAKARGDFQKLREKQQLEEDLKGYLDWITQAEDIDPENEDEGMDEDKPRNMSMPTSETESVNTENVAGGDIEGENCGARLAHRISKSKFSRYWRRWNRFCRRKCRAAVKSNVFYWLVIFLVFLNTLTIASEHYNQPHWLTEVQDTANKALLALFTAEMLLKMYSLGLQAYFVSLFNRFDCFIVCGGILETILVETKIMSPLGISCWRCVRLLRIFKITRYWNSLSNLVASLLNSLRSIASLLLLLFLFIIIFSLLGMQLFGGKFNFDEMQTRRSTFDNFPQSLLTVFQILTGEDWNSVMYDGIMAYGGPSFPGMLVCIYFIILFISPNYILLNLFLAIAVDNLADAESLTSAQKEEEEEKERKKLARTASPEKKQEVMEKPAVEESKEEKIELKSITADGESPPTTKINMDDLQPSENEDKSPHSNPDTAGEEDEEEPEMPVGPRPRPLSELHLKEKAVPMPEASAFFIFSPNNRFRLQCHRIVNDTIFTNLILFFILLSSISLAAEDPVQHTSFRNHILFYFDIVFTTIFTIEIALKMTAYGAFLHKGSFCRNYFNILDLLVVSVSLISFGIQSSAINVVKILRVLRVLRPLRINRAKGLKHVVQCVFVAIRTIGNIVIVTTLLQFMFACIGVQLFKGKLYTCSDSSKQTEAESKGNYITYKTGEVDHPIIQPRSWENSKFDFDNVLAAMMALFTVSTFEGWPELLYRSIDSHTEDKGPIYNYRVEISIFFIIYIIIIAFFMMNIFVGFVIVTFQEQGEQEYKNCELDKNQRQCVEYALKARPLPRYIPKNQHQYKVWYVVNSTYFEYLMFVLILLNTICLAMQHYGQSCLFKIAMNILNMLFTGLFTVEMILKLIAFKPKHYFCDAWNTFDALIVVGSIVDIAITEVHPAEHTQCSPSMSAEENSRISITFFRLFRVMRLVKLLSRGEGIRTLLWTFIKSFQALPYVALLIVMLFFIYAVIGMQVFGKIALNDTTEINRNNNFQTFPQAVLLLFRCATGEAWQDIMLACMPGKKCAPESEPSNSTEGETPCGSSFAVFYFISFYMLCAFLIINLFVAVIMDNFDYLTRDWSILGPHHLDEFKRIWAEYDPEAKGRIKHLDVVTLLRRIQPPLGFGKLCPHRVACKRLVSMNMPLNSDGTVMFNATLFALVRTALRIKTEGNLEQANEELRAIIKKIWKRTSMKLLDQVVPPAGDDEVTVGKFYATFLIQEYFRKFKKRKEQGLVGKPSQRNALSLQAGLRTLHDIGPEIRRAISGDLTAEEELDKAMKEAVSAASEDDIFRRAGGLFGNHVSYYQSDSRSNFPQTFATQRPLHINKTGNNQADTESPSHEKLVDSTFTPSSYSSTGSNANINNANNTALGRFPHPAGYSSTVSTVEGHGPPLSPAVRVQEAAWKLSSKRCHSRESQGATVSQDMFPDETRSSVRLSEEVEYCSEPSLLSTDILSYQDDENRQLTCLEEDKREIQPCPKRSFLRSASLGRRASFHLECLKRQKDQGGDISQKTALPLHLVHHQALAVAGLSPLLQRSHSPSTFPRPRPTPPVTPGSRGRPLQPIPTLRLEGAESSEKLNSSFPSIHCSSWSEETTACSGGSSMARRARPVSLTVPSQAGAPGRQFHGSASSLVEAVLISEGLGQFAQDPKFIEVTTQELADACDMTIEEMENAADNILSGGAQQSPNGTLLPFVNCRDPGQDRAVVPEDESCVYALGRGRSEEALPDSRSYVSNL
Test [4] addresses T2, Gastrin/cholecystokinin type B receptor (Homo sapiens, UniProt P32239).
T2 sequence (P32239 whole entry): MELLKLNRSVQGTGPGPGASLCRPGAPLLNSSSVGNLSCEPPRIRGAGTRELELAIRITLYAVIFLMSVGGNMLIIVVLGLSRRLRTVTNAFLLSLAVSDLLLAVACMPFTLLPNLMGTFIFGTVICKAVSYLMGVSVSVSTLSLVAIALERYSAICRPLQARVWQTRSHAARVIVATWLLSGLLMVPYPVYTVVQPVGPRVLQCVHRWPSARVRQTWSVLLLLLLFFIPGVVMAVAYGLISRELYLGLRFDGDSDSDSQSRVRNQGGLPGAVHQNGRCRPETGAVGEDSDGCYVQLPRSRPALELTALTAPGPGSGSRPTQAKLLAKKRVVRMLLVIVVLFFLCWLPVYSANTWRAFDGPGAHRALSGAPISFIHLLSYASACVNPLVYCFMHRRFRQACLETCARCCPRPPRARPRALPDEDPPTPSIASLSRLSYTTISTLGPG

Another test deals with T3, Progesterone receptor (Homo sapiens, UniProt P06401).
T3 sequence (P06401 whole entry): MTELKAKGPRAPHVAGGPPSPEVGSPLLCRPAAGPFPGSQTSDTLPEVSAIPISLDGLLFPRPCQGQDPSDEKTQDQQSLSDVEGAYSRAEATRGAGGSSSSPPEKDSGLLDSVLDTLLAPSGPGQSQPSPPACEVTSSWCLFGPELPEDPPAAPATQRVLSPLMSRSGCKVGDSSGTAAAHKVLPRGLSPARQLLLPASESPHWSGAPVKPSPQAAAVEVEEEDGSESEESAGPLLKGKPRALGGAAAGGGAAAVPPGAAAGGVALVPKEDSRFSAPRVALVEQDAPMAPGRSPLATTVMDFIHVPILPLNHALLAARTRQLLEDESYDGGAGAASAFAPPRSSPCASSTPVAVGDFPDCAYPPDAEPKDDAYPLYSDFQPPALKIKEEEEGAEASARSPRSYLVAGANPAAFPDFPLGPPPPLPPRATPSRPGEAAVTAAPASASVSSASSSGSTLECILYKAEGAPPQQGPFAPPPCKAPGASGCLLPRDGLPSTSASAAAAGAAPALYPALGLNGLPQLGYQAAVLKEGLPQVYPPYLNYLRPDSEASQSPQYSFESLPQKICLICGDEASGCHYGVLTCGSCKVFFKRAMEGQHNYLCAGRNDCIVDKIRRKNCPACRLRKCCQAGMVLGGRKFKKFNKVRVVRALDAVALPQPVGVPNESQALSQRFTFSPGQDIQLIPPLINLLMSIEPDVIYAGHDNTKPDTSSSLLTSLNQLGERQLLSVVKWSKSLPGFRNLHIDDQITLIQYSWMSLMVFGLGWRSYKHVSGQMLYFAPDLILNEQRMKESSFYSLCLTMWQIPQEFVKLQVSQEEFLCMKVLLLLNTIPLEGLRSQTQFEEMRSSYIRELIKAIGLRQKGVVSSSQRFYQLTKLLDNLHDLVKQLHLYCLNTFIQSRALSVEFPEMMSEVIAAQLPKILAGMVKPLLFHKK
Type of test: functional.

Test [5] concerns the target T4, 5-hydroxytryptamine receptor 2C (Homo sapiens, UniProt P28335).
T4 sequence (P28335 whole entry): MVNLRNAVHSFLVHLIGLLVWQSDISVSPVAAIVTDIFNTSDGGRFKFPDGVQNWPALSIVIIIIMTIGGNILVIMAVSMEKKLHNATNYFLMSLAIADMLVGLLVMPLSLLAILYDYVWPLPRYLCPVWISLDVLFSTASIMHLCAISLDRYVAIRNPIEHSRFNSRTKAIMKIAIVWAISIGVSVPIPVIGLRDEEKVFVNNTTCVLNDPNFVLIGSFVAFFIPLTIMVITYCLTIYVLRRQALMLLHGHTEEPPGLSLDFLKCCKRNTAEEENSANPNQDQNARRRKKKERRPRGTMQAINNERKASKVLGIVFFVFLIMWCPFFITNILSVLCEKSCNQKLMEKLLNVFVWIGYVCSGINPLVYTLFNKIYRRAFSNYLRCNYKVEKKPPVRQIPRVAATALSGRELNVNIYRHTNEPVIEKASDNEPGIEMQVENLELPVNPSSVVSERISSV

Test [6] has as its target Beta-2 adrenergic receptor (Homo sapiens, UniProt P07550).
The target of test [7] is Glutamate receptor ionotropic, NMDA 1 (Rattus norvegicus, UniProt P35439).
Test [8] addresses T5, Equilibrative nucleoside transporter 1 (Homo sapiens, UniProt Q99808).
T5 sequence (Q99808 whole entry): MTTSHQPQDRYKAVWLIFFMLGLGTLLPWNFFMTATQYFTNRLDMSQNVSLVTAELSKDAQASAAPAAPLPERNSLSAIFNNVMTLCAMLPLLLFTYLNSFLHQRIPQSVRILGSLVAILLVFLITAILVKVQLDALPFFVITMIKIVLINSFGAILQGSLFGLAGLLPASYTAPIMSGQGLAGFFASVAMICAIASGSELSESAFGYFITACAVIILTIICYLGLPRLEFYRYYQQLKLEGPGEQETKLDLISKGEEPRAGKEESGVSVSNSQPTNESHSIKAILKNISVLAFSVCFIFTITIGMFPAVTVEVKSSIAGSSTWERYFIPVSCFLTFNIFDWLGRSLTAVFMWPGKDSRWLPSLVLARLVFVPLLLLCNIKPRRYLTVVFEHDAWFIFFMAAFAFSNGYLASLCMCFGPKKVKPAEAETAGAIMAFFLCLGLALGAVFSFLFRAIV

Each structure is given as a SMILES string.
Further: assay procedure not described here.

Chain of Beta-2 adrenergic receptor (P07550 whole entry): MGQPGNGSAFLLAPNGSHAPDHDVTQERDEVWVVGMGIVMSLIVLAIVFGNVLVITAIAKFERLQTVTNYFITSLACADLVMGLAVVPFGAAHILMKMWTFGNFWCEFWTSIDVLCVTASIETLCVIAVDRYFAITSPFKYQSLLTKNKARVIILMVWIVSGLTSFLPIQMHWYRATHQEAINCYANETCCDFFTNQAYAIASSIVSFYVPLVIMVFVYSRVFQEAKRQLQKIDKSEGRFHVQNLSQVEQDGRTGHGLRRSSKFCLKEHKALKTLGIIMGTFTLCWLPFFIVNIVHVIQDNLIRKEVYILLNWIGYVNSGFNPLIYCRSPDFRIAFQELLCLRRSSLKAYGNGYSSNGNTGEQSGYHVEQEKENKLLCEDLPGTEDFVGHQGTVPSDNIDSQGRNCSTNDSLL

A word on the AC50: it is the concentration at which the activity in the assay is half-maximal. For the molecule `COC(=O)[C@H]1[C@H]2C[C@@H]3c4[nH]c5ccccc5c4CCN3C[C@H]2C[C@@H](OC(=O)c2cc(OC)c(OC)c(OC)c2)[C@@H]1OC` [DESERPIDINE], the AC50 is above 10 µM in test [1]; above 10 µM in [2]; above 10 µM in test [3]; above 30 µM in test [4]; above 30 µM at Progesterone receptor; above 30 µM in test [5]. Moreover, the AC50 in [6], in test [7] and in test [8] was above 10 µM throughout.
`CCN1C(=O)NC(c2ccccc2)C1=O` (stereo not drawn) [ETHOTOIN]: the AC50 (in [1]; in [2]; in test [4]; at Progesterone receptor; in test [5]; in test [7]) was above 30 µM in each case. In [8], the AC50 was above 30 µM.
Regarding `CS(=O)(=O)NC(=O)CCC/C=C\C[C@H]1C(=O)C[C@@H](O)[C@@H]1/C=C/[C@@H](O)COc1ccccc1` [SULPROSTONE], the AC50 (in test [1]; in test [2]; in test [4]; on Progesterone receptor; in [5]; in test [7]) was above 30 µM each time. The molecule further registered an AC50 in test [8] above 30 µM.
As for `CCN(CC)CCCN(c1ccccc1)C1Cc2ccccc2C1` [APRINDINE], the AC50 is above 30 µM in test [1]; 11.6 µM in [2]; above 10 µM in test [3]; above 30 µM in [4]; above 30 µM on Progesterone receptor; 8.5 µM in test [5]. For the same molecule, the AC50 in test [6] is above 10 µM; in test [7] it was above 30 µM; in test [8] it was above 30 µM.
`COc1ccc(-n2nc(C(N)=O)c3c2C(=O)N(c2ccc(N4CCCCC4=O)cc2)CC3)cc1` [APIXABAN]: the AC50 (in test [1]; in test [2]; in [4]; at Progesterone receptor; in test [5]; in test [7]) was above 30 µM in each case. In test [8], this molecule yielded an AC50 of 26 µM.
As to `CCCCCCCC(=O)CC[C@@H]1[C@@H](C/C=C\CCCC(=O)O)[C@@H](O)C[C@H]1O` [UNOPROSTONE], the AC50 (in test [1]; in test [2]; in test [4]; at Progesterone receptor; in test [5]; in test [7]) was above 30 µM each time. In test [8], this molecule showed an AC50 above 30 µM.
Take `CC(=O)OCC1=C(C(=O)O)N2C(=O)[C@@H](NC(=O)Cc3cccs3)[C@H]2SC1` [CEPHALOTHIN]: the AC50 (in test [1]; in test [2]; in [4]; on Progesterone receptor; in [5]; in [7]) was above 30 µM in each case. Moreover, the AC50 in [8] was above 30 µM.
For `CCC(=O)O[C@H](CC(=O)O)C[N+](C)(C)C` [LEVOCARNITINE PROPIONATE], the concentration at half-maximal activity (AC50) (in test [1]; in [2]; in test [4]; on Progesterone receptor; in [5]; in test [7]) was above 30 µM each time. The AC50 in test [8] was above 30 µM.
Consider `CN1CCCN=C1/C=C/c1cccc(O)c1` [OXANTEL], for which the AC50 in test [1] was above 30 µM; in test [2] it was above 30 µM; in test [3], above 30 µM; in [4], above 10 µM; at Progesterone receptor it was 10 µM; in test [5], above 30 µM. The AC50 in [7] is above 30 µM.
Consider `COC(=O)c1ccc2c(c1)NC(=O)/C2=C(\Nc1ccc(N(C)C(=O)CN2CCN(C)CC2)cc1)c1ccccc1` [NINTEDANIB], for which the AC50 in test [1] is 11 µM; in [2], above 30 µM; in test [4], above 30 µM; on Progesterone receptor it was above 30 µM; in [5], 25 µM; in test [7], above 30 µM. In test [8], the AC50 is above 30 µM.
Take `CCCCCCOC(=O)NC(=N)c1ccc(NCc2nc3cc(C(=O)N(CCC(=O)OCC)c4ccccn4)ccc3n2C)cc1` [DABIGATRAN ETEXILATE]: the AC50 was above 30 µM in test [1]; 17 µM in test [2]; above 30 µM in [4]; above 30 µM at Progesterone receptor; above 30 µM in [5]; above 30 µM in test [7]. Moreover, in [8], the AC50 was above 30 µM.
As for `CC1=C(C(=O)O)N2C(=O)[C@@H](NC(=O)[C@H](N)C3=CCC=CC3)[C@H]2SC1` [CEPHRADINE], the AC50 in test [1] is above 30 µM; in test [2], above 30 µM; in test [4] it was above 30 µM; on Progesterone receptor, 22 µM; in test [5], above 30 µM; in test [7], above 30 µM. Also, in test [8], the AC50 was above 30 µM.
On to `O=C(O)c1nn(Cc2ccc(Cl)cc2Cl)c2ccccc12` [LONIDAMINE], for which the AC50 (in test [1]; in test [2]; in test [4]; at Progesterone receptor; in [5]; in test [7]) was above 30 µM throughout. In test [8], this molecule showed an AC50 above 30 µM.
In the case of `CCCCOC(=O)C(=O)Nc1cccc(-c2nnn[nH]2)c1` [TAZANOLAST], the AC50 (in [1]; in [2]; in [3]; in test [4]; at Progesterone receptor; in [6]) was above 30 µM throughout. The AC50 in test [7] and in test [8] was above 30 µM in each case.

The record behind these values is ChEMBL document CHEMBL5291721, “A preclinical secondary pharmacology resource illuminates target-adverse drug reaction associations of marketed drugs” (Nat Commun, 2023).
